# Test results from paper PMC8049054, “Systematic Assessment of Fragment Identification for Multitarget Drug Design” (Chemmedchem, 2021).
# Target: T1, 5‐lipoxygenase (5‐LOX) (Homo sapiens, UniProt P09917)
# T1 construct: made in house; host or cells: E. coli BL21 (DE3)
# T1 sequence (P09917 1-674): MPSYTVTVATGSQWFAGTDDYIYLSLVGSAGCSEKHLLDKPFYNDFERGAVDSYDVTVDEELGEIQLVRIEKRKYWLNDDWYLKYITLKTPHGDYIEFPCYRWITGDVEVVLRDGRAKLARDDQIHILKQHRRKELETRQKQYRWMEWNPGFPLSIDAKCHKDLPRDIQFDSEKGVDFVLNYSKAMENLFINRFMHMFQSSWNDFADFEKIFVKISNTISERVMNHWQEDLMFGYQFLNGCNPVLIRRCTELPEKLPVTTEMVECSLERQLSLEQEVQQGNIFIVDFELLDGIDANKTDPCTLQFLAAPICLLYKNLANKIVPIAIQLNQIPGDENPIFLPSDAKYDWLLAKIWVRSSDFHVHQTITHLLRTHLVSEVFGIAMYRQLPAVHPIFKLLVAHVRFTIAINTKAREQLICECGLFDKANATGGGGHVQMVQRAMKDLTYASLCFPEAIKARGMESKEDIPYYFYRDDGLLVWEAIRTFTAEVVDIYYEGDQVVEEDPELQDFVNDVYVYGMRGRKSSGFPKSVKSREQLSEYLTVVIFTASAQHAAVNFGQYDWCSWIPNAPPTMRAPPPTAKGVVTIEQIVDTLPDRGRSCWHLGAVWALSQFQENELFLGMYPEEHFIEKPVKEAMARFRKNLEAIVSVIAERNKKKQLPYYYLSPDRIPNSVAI
# Assay: Differential scanning fluorimetry (DSF) screen on 5-LOX
# Type: binding
# Conditions: 500 μM fragment, mean of duplicates
# Excerpt: For the primary screen of this fragment library, we employed differential scanning fluorimetry (DSF, also known as thermal shift). DSF is generally applicable to a large panel of protein targets and provides a robust, low‐cost screening technology for fragment‐based approaches. ^[20] All five proteins of our interest are soluble and were recombinantly expressed in Escherichia coli. We performed an initial fragment screen on all five targets by DSF. The use of a uniform screening method for all targets ensured consistent data and provided the opportunity to identify false positive hits which interfered with the screening technology. The conditions of the DSF assay were optimized for the desired screening and validated with reference compounds (Table S1 in the Supporting Information). Compounds causing a positive thermal shift ΔT m≥1.0 °C were considered as active.
# DSF measurement of the PDFL (single concentration of 500 μM, duplicates, 96‐well format) on the five proteins retrieved 19 fragment hits on sEH, 28 on LTA4H, 12 on 5‐LOX, 16 on RXRα, and 14 on FXR, respectively. Melting point distributions of the screening library for all five targets are depicted in Figure 2. Amongst the hits, three compounds (Table S2) gave a positive signal on all five proteins likely qualifying them as pan assay interference compounds (PAINS). ^[21] Fragments binding to multiple targets (Scheme 1) were identified for seven out of ten target combinations (Figure 2, Table 1). Among them, fragments 4, 6, 7, and 9 match previously identified privileged scaffolds for fatty acid mimetics. ^[14] […] Active ligands containing N‐phenylbenzamide 6 and the N‐phenylbenzylamine 7 have been described for four of the protein targets. Furthermore, indole, which has been characterized as a privileged heterocycle for fatty acid mimetics, ^[14] is present in fragments 5 and 10. Dual 5‐LOX/RXR ligand 1 was present in 5‐LOX inhibitors, while dual FXR/LTA4H modulator 3 is found among known FXR ligands. Fragments 2 (sEH/5‐LOX) and 8 (LTA4H/RXR) are novel scaffolds not appearing in known ligands of any of the five targets.
# Figure S3: SDS page of the purified proteins (proteins RXRα and FXR after TEV cleavage) using a 14% polyacrylamide gel, which was stained with coomassi. Precision Plus Protein™ Unstained Protein Standard s (Bio-Rad Laboratories, Inc. ) was used […]
# All experiments were performed as duplicates using MicroAmp fast 96 -well plates. Each plate contained 80 different compound wells and 16 DMSO control wells. First 0.8 µl of a 25 mM Preswick Library Fragment dilution in DMSO or pure DMSO were placed in each of the well (final concentration 500 µM). Then 39.2 µl of the master mi x (containing protein, Triton x -100, SYPRO® Orange Protein Gel Stain and buffer that corresponds to the tested protein) were added.
# Table S4: Final concentrations in DSF experiments: […]
# 5-LOX 500 µM compound, 3.5 µM protein, 0.87x DPBS, 0.87 mM EDTA, 0.01% (W/V) Triton X-100, 2.1% DMSO and 5x SYPRO® with a pH = 7.5 […]
# The measurements were performed using a iCycler iQ™ Single -Color Real Time PCR device with a heat rate of 1 °C per min, an excitation wavelength of 490 nm and an emission wavelength of 570 nm. The first derivation calculated by MyiQ Op tical Software 1.0 was analyzed using Microsoft Office Excel 2013 by comparing the maxima. A shift of 1 °C (in case of 5 -LOX 0.9°C) or more compared to the DMSO control were assumed as potentially binding of the fragment.
# (1 picture or pasted object on this page, not shown here)
row,Structure (SMILES),DSF/ΔT m 5‐LOX [°C]
1,c1ccc(N2CCNCC2)nc1 [Compound 1],0.9±0.0
2,Cc1cc(=O)n(-c2ccc(C)c(C)c2)[nH]1 [Compound 2],1.1±0.0
3,CCCCOc1cc(C(=O)OC)ccc1N [Compound 3],−1.1±0.0
4,Oc1ccc(Cc2ccccc2)cc1 [Compound 4],−1.1±0.0
5,Oc1ccc2cc[nH]c2c1 [Compound 5],−0.1±0.0
6,Cc1ccccc1C(=O)Nc1ccccc1 [Compound 6],−1.4±2.1
7,CCN(Cc1ccccc1)c1ccccc1 [Compound 7],0.9±0.0
8,Clc1ccc2c(c1)Nc1ccccc1CC2 [Compound 8],−0.1±0.0
9,Oc1ccc(-c2ccc(F)cc2F)cc1 [Compound 9],−1.1±0.0
10,Fc1ccc(-c2c[nH]c3ccccc23)cc1 [Compound 10],0.9±0.0
